Blank lines part the entries; values can stand above or below the molecule they belong to.
Key:
[1] = system: streptozocin-induced diabetic neuropathy; assay: streptozocin-induced diabetic neuropathy, static allodynia (von Frey hairs); type: in vivo, rats
Method: Diabetes was induced by a single i.p. injection of 50 mg/kg streptozocin (Sigma, 50 mg/ml/kg in citrate buffered saline 33 mM pH 4.5). Control animals received single i.p. injection of citrate buffered saline. […] Static allodynia was assessed using von Frey hairs and the paw withdrawal threshold (PWT) in grams (symbols represent the median and vertical bars represent the first and third quartiles) is indicated.

[2] = system: carageenan-induced oedema in a rat paw; conditions: rats, 20 mg/kg po; cited from earlier work
[3] = system: U937 human macrophage cells; conditions: cited from earlier work
adenosine A2A receptor = adenosine A2A receptor (UniProt P30543); assay: EC50 at the adenosine A2A receptor; type: biochemical
Source text: For the avoidance of doubt, the EC50 value of a compound is defined herein as the concentration of the compound that provokes a receptor response halfway between the baseline receptor response and the maximum receptor response (as determined, for example, using a dose-response curve).
The EC50 value should be determined under standard conditions (balanced salt solutions buffered to pH 7.4). For EC50 determinations using isolated membranes, cells and tissues this would be in buffered salt solution at pH 7.4 (e.g. cell culture medium), for example as in Daly et al., Pharmacol. (1993) 46, 91-100), or preferably as in Tilburg et al (J. Med. Chem. (2002) 45, 91-100). The EC50 could also be determined in vivo by measuring adenosine receptor mediated responses in a normal healthy animal, or even in a tissue perfused under normal conditions (i.e. oxygenated blood, or oxygenated isotonic media, also buffered at pH 7.4) in a normal healthy animal.

[4] = system: rat adjuvant model of arthritis; assay: rat adjuvant model of arthritis, analgesic relief; type: in vivo
[5] = 20 mg/kg po; cited from earlier work
[6] = cynamalogous monkeys, cited from earlier work
[7] = oral administration; cited from earlier work
[8] = monkey, multiple oral dosing, 14C-labelled; cited from earlier work

EC50 (adenosine A2A receptor): ~1 µM
SMILES: COc1nc(N)c2ncn([C@@H]3O[C@H](CO)[C@@H](O)[C@H]3O)c2n1 [spongosine, 2-methoxyadenosine]
alleviation of allodynia at late time points ([1]; 2.1 mg/kg dose cohort at 2, 3 and 4 hours): Significant alleviation of allodynia was still evident | dose dependence of reversal of streptozocin induced static allodynia ([1]; 0.6-2.1 mg/kg, po, STZ rats, PWT): dose dependant effects | reversal of static allodynia, all doses ([1]; all doses 0.6-2.1 mg/kg po, STZ rats, PWT): effective at reversing allodynia | reversal of static allodynia, top dose ([1]; top dose (2.1 mg/kg po), versus naïve non-streptozocin injected controls): fully reversed the allodynia | inhibition of carageenan-induced inflammation [2]: 25% | phorbol ester induced TNF alpha release [3]: reduce phorbol ester induced TNF alpha release | minimum plasma concentration giving maximal analgesic relief [4]: 0.06 µM | reduction in heart rate [5]: 25% | reduction in mean blood pressure [5]: 41%

SMILES: Nc1ccn([C@@H]2C[C@@H](O)[C@H](CO)O2)c(=O)n1 [2′-deoxy-β-L-cytidine]
oral bioavailability (of 2′-deoxy-β-L-cytidine) ([6]; oral): 18% | half-life (po) ([6]; po): 2.95 h

SMILES: CC(C)[C@H](N)C(=O)OCCOCn1cnc2c(=O)[nH]c(N)nc21 [Valacyclovir]
urinary excretion of Acyclovir [7]: 63%

SMILES: Nc1nc2c(ncn2COCCO)c(=O)[nH]1 [Acyclovir]
urinary excretion of Acyclovir [7]: 19%

SMILES: N=C(N)c1ncn([C@@H]2O[C@H](CO)[C@@H](O)[C@H]2O)n1 [Viramidine]
drug level in red blood cells compared to Ribavarin [8]: only half | drug level in the liver compared to Ribavarin [8]: three times

Source: patent US7820811B2, “Pro-drugs of adenosine receptor agonists” (CBT Development Limited, priority 2006, dated 2010)
